Patent US5681708A, “Method for screening compositions” (SmithKline Beecham Corporation, priority 1994, dated 1997)

These molecules were tested against T1, CD4/Lck protein complex (Homo sapiens, UniProt P01730+P06239) (assay: CD4/Lck Dissociation Assay (ELISA-based, CEM cell extracts)). Conditions: CEM cell detergent extract, 30 min at 30° C., OKT4 capture, C-Lck detection; read-out: IC50, concentration of test compound which dissociated 50% of the target CD4/Lck protein complex relative to controls.
T1 construct: Detergent extracts of CEM cells were prepared by pelleting cells; endogenous in cells; host or cells: CEM (ATCC CCL 119), acute lymphoblastic CD4-positive human T-cell line; diluted detergent (NP-40) extract
Format: biochemical
Procedure: Acute lymphoblastic CD4-positive human T-cells, from the T-cell line CEM (ATCC CCL 119), were grown in suspension in RPMI-1640 medium supplemented with 10% heat-inactivated fetal calf serum at 37° C. to a cell density of 0.8-1.2×10^6 cells/mi. Detergent extracts of CEM cells were prepared by pelleting cells, washing with Dulbecco's phosphate buffered saline without Ca and Mg (D-PBS) at 4° C. and resuspending the cell pellet in sufficient freshly prepared extraction buffer (50 mM Tris, pH 8.0, 150 mM NaCl, 2 mM EDTA, 50 mM NaF, 3% NONIDET™ P-40, 0.1 mMNa vanadate, 0.1 mM PMSF, 10 ug/ml leupeptin, 10 ug/ml aprotinin, 10 ug/ml TLCK) to yield 1.0×10^8 cells in a volume of 1 ml. The cell pellet was resuspended gently on ice until a homogeneous suspension was obtained and kept on ice for at least 30 min with occasional vortexing. The suspension was then centrifuged at 29,000 xg for 30 min at 4° C.; the clear cell extract supernatant was transferred to a clean tube and placed on ice.
Cell extracts were diluted 16-fold with ice-cold PBS (0.1M phosphate, 0.15M NaCl, ph 7.4) containing 0.5% (w/v) BSA and 0.05% (v/v) TWEEN™ 20 (PBT) to yield 6.25×10^6 cell equivalents/mi. Candidate dissociative agents were diluted to 1 mg/ml with ddH2 O and 10 ul were added to Corning plate wells. A 90 ul volume of diluted cell extract (5.6×10^5 cell equivalents) were added to the Corning plate wells containing an organic solvent to provide a final candidate agent concentration of 0.1 mg/ml. Exemplary organic solvents are DMSO and ethanol. The resulting final concentration of organic solvent was 1%. The plates were incubated for 30 min at 30° C. in a water bath and then transferred to ice. Alternatively, diluted cell extracts can be incubated with candidate agents for 2 to 3 hours at room temperature (22°-25° C.).
ELISA assay plate wells were prepared by coating MaxiSorp™ (Nunc, round-bottom wells) or TITERTEK™ plate wells overnight at 4° C. with 100 ul of 2.5 ug/ml OKT4 CD4 mAb in 0.1M NaHCO3, pH 9.2. TITERTEK™ and Corning ELISA plates were also successfully used. Other CD4 monoclonal antibodies which bind to portions of the V1 domain in the extracellular portion of the CD4 molecule may also be used. All CD4 monoclonal antibodies were either purchased from Ortho or purified from specific hybridomas available from the ATCC. OKT4 hybridoma is available under ATCC CRL 8002.
When ready for use, the coating solution was removed and the wells rinsed 3× with PBS. A blocking step was performed by adding 0.3 ml PBT per well and incubating at least 30 min at 37° C. All PBT was removed and 50 ul of diluted cell extracts were added to the test wells. 50 ul of extraction buffer/PBT (1:15, v/v) were added to the assay blank wells. The plates were sealed and incubated 1 hour at 4° C. […]

T1 sequence (P06239 2-509 limits assumed, other chains not shown): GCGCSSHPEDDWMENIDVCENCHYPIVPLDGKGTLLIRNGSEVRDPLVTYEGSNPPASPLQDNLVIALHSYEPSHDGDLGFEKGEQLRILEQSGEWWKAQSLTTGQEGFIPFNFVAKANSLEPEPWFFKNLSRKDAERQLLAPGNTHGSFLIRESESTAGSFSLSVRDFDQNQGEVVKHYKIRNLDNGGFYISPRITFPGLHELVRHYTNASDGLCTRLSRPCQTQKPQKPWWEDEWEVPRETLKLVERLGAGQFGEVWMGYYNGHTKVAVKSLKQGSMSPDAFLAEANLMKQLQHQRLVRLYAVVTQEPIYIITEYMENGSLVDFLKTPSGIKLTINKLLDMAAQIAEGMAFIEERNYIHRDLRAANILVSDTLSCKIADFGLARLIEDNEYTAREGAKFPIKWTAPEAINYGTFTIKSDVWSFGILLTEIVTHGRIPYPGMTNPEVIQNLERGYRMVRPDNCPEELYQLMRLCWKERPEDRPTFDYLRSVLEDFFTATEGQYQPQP

| Molecule | IC50 [µM] |
| --- | --- |
| CCCCCCCCCCCC1N=C(N)N2CCCC2=C1C(=O)OCCCCNC(=N)N (stereo not shown) [Crambine A] | < 100 |
| 5,7-dihydroxy-4'-methoxyisoflavone [Genistein] | > 200 |
| N#C/C(=C\c1ccc(O)c(O)c1)C(N)=O [LC-A46, trans-2-cyano, 3-(3,4-dihydroxyphenyl)acrylamide] | 300 |
| N#CC(C#N)=Cc1ccc(O)c(O)c1 [LC-A23, 2-cyano, 3-(3,4-dihydroxyphenyl)acrylonitrile] | > 500 |
